The results in this text go back to PubChem BioAssay AID192 (DTP/NCI, 2004).

Values joined by “and” are separate entries in the source; they are usually repeats but may differ in a detail not shown here. Identical values can stand only once. Toxic doses and inconclusive results are not listed.

In this experiment the test system is BDF1 mice, B16 melanoma ip, median survival T/C. The experiment in a line: NCI In Vivo Anticancer Drug Screen. Data for tumor model B16 Melanoma (intraperitoneal) in B6D2F1 (BDF1) mice. Conditions: endpoint: median survival time, higher = longer survival. The gist of the method:
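Read-out: survival or tumor size, given as treated/control ratio. Controls received vehicle only; animals bore transplantable tumors.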

Setting [1] is: dose: 100.0 mg/kg/injection, schedule: Q01DX009 (ip), vehicle: Klucel (hydroxypropylcellulose) (HPC).
Where [2] appears, read: dose: 200.0 mg/kg/injection, schedule: Q01DX009 (ip), vehicle: Klucel (hydroxypropylcellulose) (HPC).
[3] abbreviates: dose: 400.0 mg/kg/injection, schedule: Q01DX009 (ip), vehicle: Klucel (hydroxypropylcellulose) (HPC).
Where [4] appears, read: dose: 25.0 mg/kg/injection, schedule: Q01DX009 (ip), vehicle: Klucel (hydroxypropylcellulose) (HPC).
Where [5] appears, read: dose: 50.0 mg/kg/injection, schedule: Q01DX009 (ip), vehicle: Klucel (hydroxypropylcellulose) (HPC).
Where [6] appears, read: dose: 50.0 mg/kg/injection, schedule: Q01DX009 (ip), vehicle: saline with Tween-80.
[7] abbreviates: dose: 50.0 mg/kg/injection, schedule: Q01DX009 (ip), vehicle: saline.
Setting [8] is: dose: 100.0 mg/kg/injection, schedule: Q01DX009 (ip), vehicle: saline.
Setting [9] is: dose: 200.0 mg/kg/injection, schedule: Q01DX009 (ip), vehicle: saline.
[10] abbreviates: dose: 400.0 mg/kg/injection, schedule: Q01DX009 (ip), vehicle: saline.
[11] abbreviates: dose: 12.5 mg/kg/injection, schedule: Q01DX009 (ip), vehicle: saline with Tween-80.
Where [12] appears, read: dose: 25.0 mg/kg/injection, schedule: Q01DX009 (ip), vehicle: saline with Tween-80.
Where [13] appears, read: dose: 5.0 mg/kg/injection, schedule: Q01DX009 (ip), vehicle: saline.

For the compound `CCOc1ccccc1NC(=O)c1cccc(C(=O)Nc2ccccc2OCC)c1`, the T/C is 105 % of control under setting [1], 94 % of control under setting [2] and 94 % of control under setting [3].

For the compound `CC1(C)N=C(N)N=C(N)N1c1cccc(CC(=O)Nc2ccc(S(=O)(=O)F)cc2)c1`, the T/C is 103 % of control under setting [4]; 102 % of control under setting [5]; 109 % of control under setting [1]; 109 % of control (dose: 150.0 mg/kg/injection, schedule: Q01DX009 (ip), vehicle: Klucel (hydroxypropylcellulose) (HPC)).

With `CN1CCC23c4ccccc4NC1C21CCN(C)C3Nc2ccccc21`, the T/C reads like this: (dose: 1.87 mg/kg/injection, schedule: Q01DX009 (ip), vehicle: saline) 107 % of control; (dose: 3.75 mg/kg/injection, schedule: Q01DX009 (ip), vehicle: saline) 107 % of control; (dose: 7.5 mg/kg/injection, schedule: Q01DX009 (ip), vehicle: saline) 109 % of control.

For `Cc1cc(C)c(OCC2CO2)c(C)c1` (stereo not given), the T/C is, setting by setting: under setting [1], 103 % of control; under setting [2], 96 % of control; under setting [3], 90 % of control.

Take `Cc1ccc(C(=N)c2ccccc2Cc2cccc3ccccc23)c(C)c1`: under setting [6], the T/C is 88 % of control.

`COc1cc(OC)cc(C(O)C(C)NC(C)C)c1` (stereo not given): the T/C is 112 % of control (dose: 6.25 mg/kg/injection, schedule: Q01DX009 (ip), vehicle: saline); 87 % of control under setting [7]; 112 % of control under setting [8].

Consider `COc1cc2c(=O)oc3c(OC)c(O)cc4c(=O)oc(c1OC)c2c34`, for which the T/C (dose: 4.0 mg/kg/injection, schedule: Q01DX009 (ip), vehicle: saline with Tween-80) is 100 % of control; the T/C (dose: 8.0 mg/kg/injection, schedule: Q01DX009 (ip), vehicle: saline with Tween-80) was 94 % of control; the T/C (dose: 16.0 mg/kg/injection, schedule: Q01DX009 (ip), vehicle: saline with Tween-80) is 96 % of control; the T/C (dose: 32.0 mg/kg/injection, schedule: Q01DX009 (ip), vehicle: saline with Tween-80) is 90 % of control.

On to `COc1ccc(NC2=C(C)C(=O)C3=C(C2=O)[C@H](COC(N)=O)[C@]2(OC)[C@@H]4N[C@@H]4CN32)cc1OC`, for which the T/C is 223 % of control (dose: 3.0 mg/kg/injection, schedule: Q04DX003 (ip), vehicle: water) and 312 % of control (dose: 6.0 mg/kg/injection, schedule: Q04DX003 (ip), vehicle: water).

As to `OC1COCOC1` (tested in a mixture with another compound), the T/C was 115 % of control under setting [8], 106 % of control under setting [9] and 106 % of control under setting [10].

Regarding `Cc1ccccc1-n1c(C)nc2ccccc2c1=O`, the T/C is 92 % of control and 108 % of control (dose: 12.5 mg/kg/injection, schedule: Q01DX009 (ip), vehicle: Klucel (hydroxypropylcellulose) (HPC)); 92 % of control under setting [4]; 88 % of control and 90 % of control under setting [5]; 88 % of control under setting [1]; 90 % of control under setting [2].

Regarding `CC(=O)C(N)CCC(=O)O` (stereo not given), the T/C under setting [7] was 105 % of control, the T/C under setting [8] was 113 % of control and the T/C under setting [9] was 97 % of control.

Turning to `Nc1ccc(OC(F)(F)C(F)Cl)cc1` (stereo not given), the T/C reads like this: under setting [1], 86 % of control; under setting [2], 96 % of control; under setting [3], 103 % of control.

`COc1cc2c(cc1OC)/C(=C\C(=O)N1CCCC1=O)CCC2`: the T/C under setting [1] is 97 % of control, the T/C under setting [2] was 100 % of control and the T/C under setting [3] was 117 % of control.

`ClC(Cl)=C(Cl)Cl`: the T/C is 105 % of control under setting [11]; 98 % of control under setting [12]; 101 % of control under setting [5]; 93 % of control under setting [6]; 99 % of control under setting [1]; 92 % of control (dose: 100.0 mg/kg/injection, schedule: Q01DX009 (ip), vehicle: saline with Tween-80). In addition, the T/C is 98 % of control under setting [2] and 88 % of control under setting [3].

Turning to `NC1=C(N2CC2)C(=O)C(N)=C(N2CC2)C1=O`, the T/C was 112 % of control (dose: 6.0 micrograms/kg/injection, schedule: Q01DX009 (ip), vehicle: saline); 112 % of control (dose: 12.5 micrograms/kg/injection, schedule: Q01DX009 (ip), vehicle: saline); 105 % of control (dose: 25.0 micrograms/kg/injection, schedule: Q01DX009 (ip), vehicle: saline); 120 % of control (dose: 50.0 micrograms/kg/injection, schedule: Q01DX009 (ip), vehicle: saline); 124 % of control (dose: 200.0 micrograms/kg/injection, schedule: Q01DX009 (ip), vehicle: saline).

Turning to `COCCN1CCC(C)(CO)C1` (stereo not given), the T/C was 106 % of control under setting [8], 100 % of control under setting [9] and 93 % of control under setting [10].

With `CC(=O)C1=CC(=O)NC(=O)C1C(=O)CC(C)C` (stereo not given), the T/C runs as follows: (dose: 1.56 mg/kg/injection, schedule: Q01DX009 (ip), vehicle: Klucel (hydroxypropylcellulose) (HPC)) 104 % of control; (dose: 3.12 mg/kg/injection, schedule: Q01DX009 (ip), vehicle: Klucel (hydroxypropylcellulose) (HPC)) 89 % of control and 95 % of control; (dose: 6.25 mg/kg/injection, schedule: Q01DX009 (ip), vehicle: Klucel (hydroxypropylcellulose) (HPC)) 92 % of control.

On to `O=C1N=C(Oc2ccccc2)SC1=O`, for which the T/C runs as follows: under setting [11], 101 % of control; under setting [12], 96 % of control.

With `CC(OC(C)c1ccccc1)c1ccccc1` (stereo not given), the T/C under setting [1] is 113 % of control, the T/C under setting [2] was 106 % of control and the T/C under setting [3] is 103 % of control.

Consider `CCCCCC[N+](CCCCCC)(CCCCCC)CCCCCC`, for which the T/C by setting is: (dose: 0.75 mg/kg/injection, schedule: Q01DX009 (ip), vehicle: Klucel (hydroxypropylcellulose) (HPC)) 88 % of control; (dose: 1.5 mg/kg/injection, schedule: Q01DX009 (ip), vehicle: Klucel (hydroxypropylcellulose) (HPC)) 90 % of control.

Consider `Cc1cc2ccccc2c[n+]1C`, for which the T/C (dose: 12.5 mg/kg/injection, schedule: Q04DX003 (ip), vehicle: saline) is 95 % of control; the T/C (dose: 25.0 mg/kg/injection, schedule: Q04DX003 (ip), vehicle: saline) is 95 % of control; the T/C (dose: 50.0 mg/kg/injection, schedule: Q04DX003 (ip), vehicle: saline) was 95 % of control.

In the case of `Cc1cccc(NC(=O)c2ccccc2C(=O)O)c1C`, the T/C under setting [1] is 94 % of control, the T/C under setting [2] was 94 % of control and the T/C under setting [3] is 97 % of control.

For the compound `Clc1ccc2c(c1)-c1ccccc1C1=NCCN12`, the T/C was 108 % of control under setting [13] and 118 % of control (dose: 10.0 mg/kg/injection, schedule: Q01DX009 (ip), vehicle: saline).

As for `COc1ccc(NC(=O)Oc2ccc(Cl)c(C)c2)cc1`, the T/C is, setting by setting: (dose: 200.0 mg/kg/injection, schedule: Q01DX009 (ip), vehicle: saline with Tween-80) 116 % of control; (dose: 400.0 mg/kg/injection, schedule: Q01DX009 (ip), vehicle: saline with Tween-80) 105 % of control.

In the case of `Cc1ccc(Cl)cc1NC(=O)c1ccc(Cl)cc1`, the T/C by setting is: under setting [1], 94 % of control; under setting [2], 101 % of control; under setting [3], 116 % of control.

With `[N-]=C(CC(=O)c1ccccc1)c1ccccc1.[N-]=C(CC(=O)c1ccccc1)c1ccccc1.[Ni+2]`, the T/C was 86 % of control (dose: 3.0 mg/kg/injection, schedule: Q04DX003 (ip), vehicle: Klucel (hydroxypropylcellulose) (HPC)); 93 % of control (dose: 6.0 mg/kg/injection, schedule: Q04DX003 (ip), vehicle: Klucel (hydroxypropylcellulose) (HPC)); 88 % of control (dose: 12.0 mg/kg/injection, schedule: Q04DX003 (ip), vehicle: Klucel (hydroxypropylcellulose) (HPC)).

Consider `O=COCCc1ccccc1`, for which the T/C under setting [1] was 113 % of control, the T/C under setting [2] is 103 % of control and the T/C under setting [3] was 96 % of control.

Turning to `CCC(CC)c1ccccn1`, the T/C is, setting by setting: (dose: 100.0 mg/kg/injection, schedule: Q01DX009 (ip), vehicle: carboxymethylcellulose (CMC)) 101 % of control; (dose: 200.0 mg/kg/injection, schedule: Q01DX009 (ip), vehicle: carboxymethylcellulose (CMC)) 95 % of control.

As for `C[C@]12CC[C@H]3[C@@H](CCC4=C[C@@H](OC5OCC(OC6OC(CO)C(O)C(O)C6O)C(O)C5O)CC[C@@]43C=O)[C@@]1(O)CCC2C1=CC(=O)OC1` (stereo not given in full), the T/C runs as follows: (dose: 1.25 mg/kg/injection, schedule: Q01DX009 (ip), vehicle: saline) 100 % of control; (dose: 2.5 mg/kg/injection, schedule: Q01DX009 (ip), vehicle: saline) 105 % of control; under setting [13], 89 % of control.
